Biological target: T1, rat mGluR5 receptors (Rattus norvegicus, UniProt P31424)
T1 construct: rat cerebro-cortical membrane preparation was used; from tissue; host or cells: rat cerebral cortex membranes
Experiment: mGluR5 receptor binding test, rat cerebro-cortical membrane preparation, [3H]-M-MPEP
Conditions: affinity for rat mGluR5 receptors; [3H]-M-MPEP (2 nM) radioligand
Description: The mGluR5 receptor binding was determined according to the modified method of Gasparini et. al. (Bioorg. Med. Chem. Lett., 2000, 12, 407). Based on the high homology between the human and rat mGluR5 receptors, rat cerebro-cortical membrane preparation was used to determine the binding characteristics of the reference compounds and novel compounds to the rat mGluR5. The A18 cell line expressing hmGluR5a (purchased from Euroscreen) was used to determine binding characteristics of the chemical compounds to the human mGluR5a receptor. [^3H]-M-MPEP (2 nM) was used as radioligand. The nonspecific binding was determined in the presence of 10 μM M-MPEP.

T1 sequence (P31424 21-1203): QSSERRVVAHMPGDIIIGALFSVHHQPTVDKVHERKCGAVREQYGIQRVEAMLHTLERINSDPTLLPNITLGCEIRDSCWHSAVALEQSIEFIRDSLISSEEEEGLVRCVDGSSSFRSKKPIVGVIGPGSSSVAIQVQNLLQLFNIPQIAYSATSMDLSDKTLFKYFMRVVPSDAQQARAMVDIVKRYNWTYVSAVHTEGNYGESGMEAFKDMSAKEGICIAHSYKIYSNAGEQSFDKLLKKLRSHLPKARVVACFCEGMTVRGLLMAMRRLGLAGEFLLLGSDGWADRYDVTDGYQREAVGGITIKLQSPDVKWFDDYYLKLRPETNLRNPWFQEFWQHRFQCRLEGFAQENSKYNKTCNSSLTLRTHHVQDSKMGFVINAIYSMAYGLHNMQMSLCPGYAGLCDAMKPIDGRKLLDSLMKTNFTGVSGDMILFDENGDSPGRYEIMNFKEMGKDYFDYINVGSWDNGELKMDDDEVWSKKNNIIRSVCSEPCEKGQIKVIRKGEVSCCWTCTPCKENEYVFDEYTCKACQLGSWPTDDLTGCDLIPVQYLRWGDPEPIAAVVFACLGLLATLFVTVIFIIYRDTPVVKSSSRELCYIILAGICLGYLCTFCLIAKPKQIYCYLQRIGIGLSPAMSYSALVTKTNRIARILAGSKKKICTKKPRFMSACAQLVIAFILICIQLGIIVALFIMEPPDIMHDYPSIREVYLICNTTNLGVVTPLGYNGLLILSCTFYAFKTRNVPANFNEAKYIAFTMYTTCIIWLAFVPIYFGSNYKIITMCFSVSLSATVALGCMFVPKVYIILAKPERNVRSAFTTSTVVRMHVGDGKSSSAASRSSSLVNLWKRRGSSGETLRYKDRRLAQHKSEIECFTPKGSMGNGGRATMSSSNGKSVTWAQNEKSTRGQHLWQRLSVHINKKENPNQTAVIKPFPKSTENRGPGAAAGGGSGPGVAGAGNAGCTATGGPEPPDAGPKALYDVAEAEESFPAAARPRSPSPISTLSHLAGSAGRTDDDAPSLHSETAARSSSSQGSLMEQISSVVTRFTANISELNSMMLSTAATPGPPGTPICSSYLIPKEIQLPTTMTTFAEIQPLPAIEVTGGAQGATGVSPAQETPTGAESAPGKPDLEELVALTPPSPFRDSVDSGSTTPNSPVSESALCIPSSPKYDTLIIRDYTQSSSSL

Row | SMILES | Ki [µM]
1 | CC1CCN(c2c(S(=O)(=O)c3ccc(Cl)c(Cl)c3)cnc3cc(F)ccc23)CC1 [Compound 176] | < 0.2
2 | O=S(=O)(c1ccc(Cl)cc1)c1cnc2ccccc2c1N1CCCCCC1 [Compound 34] | 0.2 to 0.5
3 | COc1cccc(S(=O)(=O)c2cnc3ccc(OC)cc3c2N2CCC(C)CC2)c1 [Compound 244] | > 0.5
4 | COc1ccc2ncc(S(=O)(=O)c3ccc(Cl)c(Cl)c3)c(N3CCC(C)CC3)c2c1 [Compound 249] | < 0.2
5 | O=S(=O)(c1ccc(Cl)c(Cl)c1)c1cnc2c(F)cccc2c1N1CCOCC1 [Compound 345] | < 0.2
6 | COc1ccc(CNc2c(S(=O)(=O)c3ccc(Cl)cc3)cnc3ccccc23)cc1 [Compound 31] | > 0.5
7 | CC1CCN(c2c(S(=O)(=O)c3ccc(F)c(F)c3)cnc3ccc(F)cc23)CC1 [Compound 152] | < 0.2
8 | Cc1ccc(S(=O)(=O)c2cnc3cc(Cl)ccc3c2N2CCOCC2)cc1Cl [Compound 329] | < 0.2
9 | O=S(=O)(c1ccc(F)c(Cl)c1)c1cnc2c(F)cccc2c1N1CCOCC1 [Compound 344] | < 0.2
10 | N#Cc1cccc(S(=O)(=O)c2cnc3cc(Cl)ccc3c2N2CCOCC2)c1 [Compound 320] | 0.2 to 0.5
11 | Cc1ccc(S(=O)(=O)c2cnc3cc(F)ccc3c2N2CCC(C)CC2)cc1 [Compound 171] | < 0.2
12 | Cc1ccc(S(=O)(=O)c2cnc3ccc(C)cc3c2NCc2ccccc2)cc1 [Compound 28] | > 0.5
13 | Cc1ccc(S(=O)(=O)c2cnc3ccccc3c2N2CCN(Cc3ccccc3)CC2)cc1 [Compound 80] | > 0.5
14 | O=S(=O)(c1ccccc1)c1cnc2cc(F)ccc2c1N1CCOCC1 [Compound 304] | > 0.5
15 | CCOC(=O)C1CCN(c2c(S(=O)(=O)c3ccc(C)cc3)cnc3ccc(OCC)cc23)CC1 [Compound 98] | > 0.5
16 | COc1cccc(Nc2c(S(=O)(=O)c3ccccc3)cnc3ccc(OC)cc23)c1 [Compound 23] | > 0.5
17 | COc1ccc2ncc(S(=O)(=O)c3ccc(OC)c(Cl)c3)c(N3CCOCC3)c2c1 [Compound 277] | > 0.5
18 | CC1CCN(c2c(S(=O)(=O)c3cccc(F)c3)cnc3ccc(F)cc23)CC1 [Compound 144] | 0.2 to 0.5
19 | Cc1ccc2ncc(S(=O)(=O)c3ccc(F)c(Cl)c3)c(N3CCC(C)CC3)c2c1 [Compound 169] | < 0.2
20 | Cc1ccc2ncc(S(=O)(=O)c3ccc(F)cc3)c(N3CCC(C)CC3)c2c1 [Compound 156] | < 0.2

Row | SMILES | Ki [µM]
21 | COc1ccc2ncc(S(=O)(=O)c3cccc(Cl)c3)c(N3CCC(C)CC3)c2c1 [Compound 246] | > 0.5
22 | Cc1ccc2ncc(S(=O)(=O)c3ccc(Cl)cc3)c(N3CCN(c4ccccc4)CC3)c2c1 [Compound 123] | > 0.5
23 | CCOC(=O)C1CCCN(c2c(S(=O)(=O)c3ccc(C)cc3)cnc3ccc(OC)cc23)C1 (stereo not drawn) [Compound 58] | > 0.5
24 | Cc1ccc2ncc(S(=O)(=O)c3ccc(Cl)cc3)c(N3CCCCC3)c2c1 [Compound 93] | > 0.5
25 | CCOC(=O)C1CCCN(c2c(S(=O)(=O)c3ccc(C)cc3)cnc3ccc(F)cc23)C1 (stereo not drawn) [Compound 99] | > 0.5
26 | O=S(=O)(c1ccccc1)c1cnc2ccc(F)cc2c1N1CCN(Cc2ccccc2)CC1 [Compound 13] | > 0.5
27 | O=S(=O)(c1ccc(F)c(Cl)c1)c1cnc2ccc(F)cc2c1N1CCOCC1 [Compound 290] | 0.2 to 0.5
28 | CCc1ccc2ncc(S(=O)(=O)c3ccc(C)cc3)c(NCc3ccc(F)cc3)c2c1 [Compound 130] | > 0.5
29 | COc1cccc(S(=O)(=O)c2cnc3cc(Cl)ccc3c2N2CCOCC2)c1 [Compound 326] | 0.2 to 0.5
30 | Cc1ccc(S(=O)(=O)c2cnc3ccc(C)cc3c2Nc2ccc(Cl)cc2)cc1 [Compound 26] | > 0.5
31 | O=S(=O)(c1ccccc1)c1cnc2ccccc2c1N1CCN(Cc2ccccc2)CC1 [Compound 64] | > 0.5
32 | Cc1ccc(S(=O)(=O)c2cnc3ccc(Cl)cc3c2N2CCOCC2)cc1 [Compound 292] | < 0.2
33 | O=S(=O)(c1ccc(F)cc1)c1cnc2cc(Cl)ccc2c1N1CCOCC1 [Compound 321] | > 0.5
34 | COc1ccc(S(=O)(=O)c2cnc3ccc(F)cc3c2N2CCC(C)CC2)cc1 [Compound 142] | < 0.2
35 | Cc1ccc(S(=O)(=O)c2cnc3ccccc3c2N2CCOCC2)cc1 [Compound 101] | > 0.5
36 | COc1ccc(S(=O)(=O)c2cnc3cc(Cl)ccc3c2N2CCC(C)CC2)cc1Cl [Compound 200] | < 0.2
37 | CCOc1ccc2ncc(S(=O)(=O)c3ccccc3)c(N3CCCC3)c2c1 [Compound 36] | > 0.5
38 | O=S(=O)(c1cc(Cl)cc(Cl)c1)c1cnc2c(F)cccc2c1N1CCOCC1 [Compound 335] | 0.2 to 0.5
39 | O=S(=O)(c1cc(F)cc(F)c1)c1cnc2cc(Cl)ccc2c1N1CCC(CO)CC1 [Compound 351] | 0.2 to 0.5
40 | Cc1ccc(S(=O)(=O)c2cnc3ccccc3c2N2CCC3(CC2)OCCO3)cc1 [Compound 97] | > 0.5

Row | SMILES | Ki [µM]
41 | COc1ccc(S(=O)(=O)c2cnc3ccc(C)cc3c2N2CCOCC2)cc1 [Compound 258] | > 0.5
42 | O=S(=O)(c1ccc(Cl)cc1)c1cnc2cc(F)ccc2c1N1CCOCC1 [Compound 305] | > 0.5
43 | Cc1ccc2ncc(S(=O)(=O)c3cccc(C#N)c3)c(N3CCOCC3)c2c1 [Compound 256] | 0.2 to 0.5
44 | O=S(=O)(c1ccc(Cl)cc1)c1cnc2c(Cl)ccc(Cl)c2c1N1CCOCC1 [Compound 347] | 0.2 to 0.5
45 | O=S(=O)(c1ccc(F)c(F)c1)c1cnc2cc(Cl)ccc2c1N1CCOCC1 [Compound 331] | > 0.5
46 | CCOc1ccc2ncc(S(=O)(=O)c3ccc(Cl)cc3)c(NCc3ccc(F)cc3)c2c1 [Compound 16] | < 0.2
47 | COc1ccc2ncc(S(=O)(=O)c3ccc(Cl)cc3)c(N3CCCCCC3)c2c1 [Compound 112] | > 0.5
48 | O=S(=O)(c1cccc(Cl)c1)c1cnc2ccc(F)cc2c1N1CCOCC1 [Compound 285] | > 0.5
49 | CC1CCN(c2c(S(=O)(=O)c3cccc(F)c3)cnc3c(F)cccc23)CC1 [Compound 232] | 0.2 to 0.5
50 | CC1CCN(c2c(S(=O)(=O)c3ccc(Cl)c(Cl)c3)cnc3ccc(Cl)cc23)CC1 [Compound 223] | < 0.2
51 | CC1CCN(c2c(S(=O)(=O)c3ccc(C#N)cc3)cnc3ccc(Cl)cc23)CC1 [Compound 218] | > 0.5
52 | CCOC(=O)N1CCN(c2c(S(=O)(=O)c3ccc(Cl)cc3)cnc3ccc(C)cc23)CC1 [Compound 131] | 0.2 to 0.5
53 | O=S(=O)(c1cc(Cl)cc(Cl)c1)c1cnc2ccc(F)cc2c1N1CCOCC1 [Compound 280] | > 0.5
54 | Cc1ccc(S(=O)(=O)c2cnc3cc(Cl)ccc3c2N2CCC(C)CC2)cc1 [Compound 191] | < 0.2
55 | CC1CCN(c2c(S(=O)(=O)c3ccc(F)c(Cl)c3)cnc3c(F)cccc23)CC1 [Compound 237] | < 0.2
56 | CC1CCN(c2c(S(=O)(=O)c3ccc(C#N)cc3)cnc3cc(Cl)ccc23)CC1 [Compound 204] | 0.2 to 0.5
57 | Cc1cc(C)cc(S(=O)(=O)c2cnc3cc(Cl)ccc3c2N2CCOCC2)c1 [Compound 333] | > 0.5
58 | COc1ccc2ncc(S(=O)(=O)c3cc(Cl)cc(Cl)c3)c(N3CCC(C)CC3)c2c1 [Compound 239] | < 0.2
59 | O=S(=O)(c1ccc(Cl)cc1)c1cnc2ccccc2c1N1CCN(c2ccc(F)cc2)CC1 [Compound 72] | > 0.5
60 | Cc1ccc(S(=O)(=O)c2cnc3c(F)cccc3c2N2CCOCC2)cc1 [Compound 342] | > 0.5
